Results: US10076519B2 (CYTOKINETICS, INC., priority 2010, dated 2018)

tested on: rabbit skeletal myofibrils (fast skeletal myofibrils); assay: Activation of fast skeletal myofibrils (PUMA assay, PK/LDH-coupled ATPase at pCa25); assay type: biochemical; conditions: AC1.4 determined according to the procedure of Example 39; reported as class symbols
Method in brief: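 ATPase activity of Triton-washed rabbit skeletal myofibrils, roughly 90% fast fibres, tracked by NADH loss at 340 nm through a PK/LDH-coupled ADP-regenerating system. Calcium set to 25% of maximal activity (pCa25), in PIPES 12 mM pH 6.8 with 2 mM MgCl2 and 1 mM DTT; AC1.4 reported.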

| Mean AC1.4 | Compound |
| --- | --- |
| A (A=<1 uM) | CNc1n[nH]c2ccc(-c3ccc(NCC4(c5ncccc5F)CCC4)nn3)cc12 [{[(3-fluoro(2-pyridyl))cyclobutyl]methyl}{6-[3-(methylamino)(1H-indazol-5-yl)]pyridazin-3-yl}amine] |
| B (B=1-10 uM) | COc1ncc(-c2ccc(NCC3(c4ccc(F)cc4)CCC3)nn2)cn1 [{[(4-fluorophenyl)cyclobutyl]meth-yl}[6-(2-methoxypyrimidin-5-yl)pyridazin-3-yl]amine] |

same assay, conditions: median AC1.4 class, procedure of Example 39

| Mean AC1.4 | Compound |
| --- | --- |
| A (A=<1 uM) | Fc1cccnc1C1(CNc2ccc(-c3ncc(-c4cn[nH]c4)s3)nn2)CCC1 [{[(3-fluoro(2-pyridyl))cyclobutyl]methyl}[6-(5-pyrazol-4-yl(1,3-thiazol-2-yl))pyridazin-3-yl]amine] |
| B (B=1-10 uM) | Fc1cccnc1C1(CNc2ccc(-c3ncc(CC(F)(F)F)s3)nn2)CCC1 [{[(3-fluoro(2-pyridyl))cyclobutyl]methyl}{6-[5-(2,2,2-trifluoroethyl)(1,3-thiazol-2-yl)]pyridazin-3-yl}amine] |
| A (A=<1 uM) | (2S)-2-amino-N-({2-[6-({[(3- fluoro(2- pyridyl))cyclobutyl]methyl}ami- no)pyridazin-3-yl](1,3-thiazol-5- yl)}methyl)-3-hydroxy-3- methylbutanamide |
| D (D=>20 uM) | ethyl 2-[6-({[(3-fluoro-2- pyridyl)cyclobutyl]methyl}ami- no)pyridazin-3-yl]-1,3-thiazole-4- carboxylate |

same assay, conditions: median AC1.4 reported as class; procedure of Example 39

| Compound | Mean AC1.4 |
| --- | --- |
| Fc1cccnc1C1(CNc2ccc(-c3ncc(CN4CCN(CC(F)(F)F)CC4)s3)nn2)CCC1 [{[(3-fluoro(2-pyridyl))cyclobutyl]methyl}[6-(5-{[4-(2,2,2-trifluoroethyl)piperazinyl]meth-yl}(1,3-thiazol-2-yl))pyridazin-3-yl]amine] | B (B=1-10 uM) |
| Fc1cccnc1C1(CNc2ccc(Cc3ccccc3)nn2)CCC1 [{[(3-fluoro(2-pyridyl))cyclobutyl]methyl}[6-benzylpyridazin-3-yl]amine] | D (D=>20 uM) |
| [6-({[(3-fluoro(2- pyridyl))cyclobutyl]methyl}ami- no)pyridazin-3-yl]-N-[(5- oxopyrrolidin-3- yl)methyl]carboxamide | D (D=>20 uM) |

Next, values leading:

| Mean AC1.4 | Compound |
| --- | --- |
| B (B=1-10 uM) | Fc1cccnc1C1(CNc2ccc(-c3ncc(CN4CCOCC4)s3)nn2)CCC1 [{[(3-fluoro(2-pyridyl))cyclobutyl]methyl}{6-[5-(morpholin-4-ylmethyl)(1,3-thiazol-2-yl)]pyridazin-3-yl}amine] |
| B (B=1-10 uM) | Fc1cccnc1C1(CNc2ccc(-c3ncc(CN4CCNCC4)s3)nn2)CCC1 [{[(3-fluoro(2-pyridyl))cyclobutyl]methyl}{6-[5-(piperazinylmethyl)(1,3-thiazol-2-yl)]pyridazin-3-yl}amine] |
